The text below walks through data of patent US20040014813A1, “Anthelminthic agents for the prevention of parasitic infections in humans and animals II” (priority 2000, published 2004).

Series [1] deals with Schistosoma mansoni cercariae. Briefly: Activity against Schistosoma mansoni cercariae (survival/mobility under stereomagnifier). The format is cell-based. Also on record: key: no effect during the entire test period of 120 minutes; 1: weak effect (the cercariae have a strongly reduced mobility); 2: good effect (the cercariae are only slightly mobile and bent); 3: full effect (the cercariae are completely immobile). The conditions noted are these: 500 >1/l final concentration of the active compounds; 5 μl active compound in 25 μl PEG300 + 9 ml aquarium water + 1 ml cercariae suspension; test period 120 minutes. On the procedure:
Activity Against Schistosoma Mansoni Cercariae
[500 >1/l Final Concentration of the Active Compounds]
Snails (Biomphalaria glabrata) were infected by incubating each of them with 8 miracidia in 10 ml of water overnight. About 6 to 9 weeks after the infection, cercariae were obtained by irradiating the snails, which had been kept in darkness, with light, followed by collection of the swarming cercariae within 2 hours.
Such an amount of cercariae-containing water (1 or 2 ml, see below) was added to the test batches that each batch contained about 100 to 150 cercariae.
5 μl of active compound were mixed thoroughly with 25 μl of PEG300. 9 ml of aquarium water was then added, and the batch was shaken vigorously. After (delayed) addition of 1 ml of cercariae suspension, survival of the cercariae was in each case observed immediately using a stereomagnifier.

For series [2] the following is noted: EU Directive on Dangerous Substances; Registry of Toxic Effects of Chemical Substances; cited from earlier work.
In series [3] the test system is cercariae of Schistosoma mansoni. As to conditions: literature (Bruce et al. 1992), monkeys, topical; cited from earlier work.
For series [4] the test system is unchanged. The conditions noted are these: literature (Fripp and Armstrong 1973; Salafsky et al. 1998); cited from earlier work.

The structures appear in SMILES notation.

In the case of `CCCCC(=O)N1CCCCC1CCOC` (stereo not drawn), the Assessment in series [1] stood at 2.
On the same count and under the same terms, the same measure for `CC(C)(C)C(=O)N1CCCCC1CCO` (stereo not drawn): 3.
For the molecule `O=C(Nc1ccc([N+](=O)[O-])cc1Cl)c1cc(Cl)ccc1O` [Niclosamide], the toxicity entry in series [2] is “may possibly cause inheritable genetic damage”. In addition, the “action against the penetration of cercariae” value in series [3] is reported as “acts against the penetration of cercariae”.
`Oc1c(Cl)cc(Cl)c(Cl)c1Cc1c(O)c(Cl)cc(Cl)c1Cl` [hexachlorophene]: in series [2], the toxicity entry was “toxic on contact with the skin and when swallowed”. Further, in series [4], the “effect on cercariae of Schistosoma mansoni” value is “lethal effect”.
On to `CCCCC(=O)N1CCCCC1CCO` (stereo not drawn), for which, in series [1], the Assessment worked out at 2.
Consider `CCN(CC)C(=O)c1cccc(C)c1` [N,N-Diethyl-m-toluamide (DEET), N,N-Diethyl-m-toluamide], for which, in series [4], the “effect on cercariae of Schistosoma mansoni” value was “acts against cercariae”.
On to `CCN(CC)C(=O)CC1CCCCC1`, for which the Assessment in series [1] was found to be 3.
